Results reported in patent US20240148821A1, “PHARMACEUTICAL USE OF CYCLIC PEPTIDE COMPOUND” (CHUGAI SEIYAKU KABUSHIKI KAISHA, priority 2021, published 2024).
Numbered stars: 1 amine (or outer) side, 2 acyl side, 3 side chain; on linkers, the order of the positions; unused ones are H or OH. Bridge positions count the residues as written; N and C are the ends. Square brackets hold non-standard residues; d marks the D form. Peptide text beside a SMILES is read from it. * marks the point of attachment. hPhe(3,5-F2-4-CF3) = N[C@@H](CCc1cc(F)c(C(F)(F)F)c(F)c1)C(=O)O; hPhe(3-Cl-4-CF3) = N[C@@H](CCc1ccc(C(F)(F)F)c(Cl)c1)C(=O)O; hPhe(3-F,4-CF3) = N[C@@H](CCc1ccc(C(F)(F)F)c(F)c1)C(=O)O; NEtPhe(4-CF3) = CCN[C@@H](Cc1ccc(C(F)(F)F)cc1)C(=O)O; NMePhe(4-CF3) = CN[C@@H](Cc1ccc(C(F)(F)F)cc1)C(=O)O; NMePhe(3,4-F2) = CN[C@@H](Cc1ccc(F)c(F)c1)C(=O)O; X22 = O=C([C@H](CCc1ccc(C(F)F)nc1)N[*:1])[*:2]; X24 = COc1cncc(C[C@@H](C(=O)[*:2])N(C)[*:1])c1; NEtPhe(4-Me) = CCN[C@@H](Cc1ccc(C)cc1)C(=O)O; NMePhe(4-Cl) = CN[C@@H](Cc1ccc(Cl)cc1)C(=O)O; NMePhe(4-Me) = CN[C@@H](Cc1ccc(C)cc1)C(=O)O; NMePhe(2-Cl) = CN[C@@H](Cc1ccccc1Cl)C(=O)O; NMedβ3hAla = C[C@H](CC(=O)[*:2])N(C)[*:1]; NMeGly(cPent) = CN[C@H](C(=O)O)C1CCCC1; NMeCha = CN[C@@H](CC1CCCCC1)C(=O)O; Hyp = O=C(O)[C@@H]1C[C@@H](O)CN1; NMeAhp(2) = CCCCC[C@H](NC)C(=O)O; NMeChg = CN[C@H](C(=O)O)C1CCCCC1; NMeF = CN[C@@H](Cc1ccccc1)C(=O)O; NMeI = CC[C@H](C)[C@H](NC)C(=O)O; NMeD = CN[C@@H](CC(=O)O)C(=O)O; NMeL = CN[C@@H](CC(C)C)C(=O)O; NMeV = CN[C@H](C(=O)O)C(C)C; d(β3hA) = C[C@@H](N)CC(=O)O; NMeS = CN[C@@H](CO)C(=O)O; Morpholide = C1CN(*)CCO1; NMeA = CN[C@@H](C)C(=O)O; Piperidide = C1CCN(*)CC1; Pyrrolidide = C1CCN(*)C1; Ac5c = NC1(C(=O)O)CCCC1; Aze = O=C(O)[C@@H]1CCN1; CH2CMe2OH = CC(C)(O)C*; Aib = CC(C)(N)C(=O)O; Isopentyl = CC(C)CC*; NEtG = CCNCC(=O)O; Sar = CNCC(=O)O

Experiments:
[1] = test system: Human pancreatic cancer cell line AsPC-1 (G12D mutation Kras); test: AsPC-1 cell growth inhibition (AsPC-1 CGI); type: cell-based; conditions: read-out: AsPC-1 cell growth inhibition, 50% growth inhibitory concentration (IC50 value); 96 hours, CellTiter-Glo, values classified in ranges
[2] = molecular target: protein-protein interaction between Kras and SOS1 (biotin-tagged human Kras loaded with GDP, His-tagged human SOS1) (Homo sapiens (Human), UniProt P01116, G12D); test: Protein-protein interaction inhibition between Kras and SOS1 (KrasG12D-SOS PPI) using AlphaScreen; type: biochemical; conditions: AlphaScreen; biotin-tagged human Kras loaded with GDP, His-tagged human SOS1; read-out: KRAS G12D-SOS PPI IC50;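 note: kras produced in E. coli, Ni-coupled donor beads and streptavidin acceptor beads, excitation 680 nm with emission detected at 520–620 nm via singlet oxygen transfer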

Compound `CCO[C@@H]1C[C@H]2C(=O)NC3(CCCC3)C(=O)N(C)[C@@H](C3CCCC3)C(=O)N(C)[C@H](C)CC(=O)N(C)[C@@H](CC(C)C)C(=O)N[C@@H]([C@@H](C)CC)C(=O)N(C)[C@@H](C)C(=O)N3CC[C@H]3C(=O)N(CC)[C@@H](Cc3ccc(C)cc3)C(=O)N(C)CC(=O)N[C@@H](CCc3cc(F)c(C(F)(F)F)c(F)c3)C(=O)N2C1` [Compound 432] (cyclo([Ac5c][NMeGly(cPent)][NMedβ3hAla][NMeL]I[NMeA][Aze][NEtPhe(4-Me)][Sar][hPhe(3,5-F2-4-CF3)][Hyp](Et))) has an IC50 [1] of no more than 20 nM and an IC50 [2] of 4.5 nM.

`CC[C@H](C)[C@@H]1NC(=O)[C@H](CC(C)C)N(C)C(=O)C[C@@H](C(=O)N2CCCC2)N(C)C(=O)[C@H]([C@@H](C)CC)N(C)C(=O)C2(CCCC2)NC(=O)[C@@H]2CCCN2C(=O)[C@H](CCc2cc(F)c(C(F)(F)F)c(F)c2)NC(=O)CN(C)C(=O)[C@H](Cc2ccc(C(F)(F)F)cc2)N(CC)C(=O)[C@@H]2CCN2C(=O)[C@H](C)N(C)C1=O` [Compound 1175] ([NMeL]I[NMeA][Aze][NEtPhe(4-CF3)][Sar][hPhe(3,5-F2-4-CF3)]P[Ac5c][NMeI][NMeD]-Pyrrolidide; lactam N-11) was tested, and the IC50 [1] was no more than 20 nM and the IC50 [2] was 0.79 nM.

For `CC[C@H](C)[C@@H]1NC(=O)[C@H](C)N(C)C(=O)C[C@@H](C(=O)N2CCCCC2)N(C)C(=O)[C@H](C(C)C)N(C)C(=O)C2(CCCC2)NC(=O)[C@H](Cc2ccc(F)c(F)c2)N(C)C(=O)[C@H](CCc2ccc(C(F)(F)F)c(Cl)c2)NC(=O)CN(C)C(=O)[C@H](CC2CCCCC2)N(C)C(=O)CN(C)C(=O)CN(C)C1=O` [Compound 171] ([NMeA]I[Sar][Sar][NMeCha][Sar][hPhe(3-Cl-4-CF3)][NMePhe(3,4-F2)][Ac5c][NMeV][NMeD]-Piperidide; lactam N-11), the IC50 [1] was greater than 500 nM and the IC50 [2] was 14 nM.

For `CCCCC[C@H]1C(=O)N[C@@H]([C@@H](C)CC)C(=O)N[C@@H](C)C(=O)N2CC[C@H]2C(=O)N(C)[C@@H](Cc2ccc(C(F)(F)F)cc2)C(=O)N(C)CC(=O)N[C@@H](CCc2ccc(C(F)(F)F)c(Cl)c2)C(=O)N2CCC[C@H]2C(=O)NC2(CCCC2)C(=O)N(C)[C@@H]([C@@H](C)CC)C(=O)N(C)[C@H](C(=O)N2CCCC2)CC(=O)N1C` [Compound 209] ([NMeAhp(2)]IA[Aze][NMePhe(4-CF3)][Sar][hPhe(3-Cl-4-CF3)]P[Ac5c][NMeI][NMeD]-Pyrrolidide; lactam N-11), the IC50 [1] was no more than 20 nM and the IC50 [2] was 1.6 nM.

Compound `CC[C@H](C)[C@@H]1NC(=O)[C@H](CC(C)C)N(C)C(=O)C[C@@H](C(=O)N2CCCCC2)N(C)C(=O)[C@H](C2CCCC2)N(C)C(=O)C2(CCCC2)NC(=O)[C@@H]2CCCN2C(=O)[C@H](CCc2ccc(C(F)F)nc2)NC(=O)CN(C)C(=O)[C@H](CC2CCCCC2)N(C)C(=O)[C@@H]2CCN2C(=O)[C@H](C)N(C)C1=O` [Compound 2060] ([NMeL]I[NMeA][Aze][NMeCha][Sar][X22]P[Ac5c][NMeGly(cPent)][NMeD]-Piperidide; lactam N-11 (inferred); C-terminus assumed) has an IC50 [1] greater than 500 nM and an IC50 [2] of 110 nM.

In the case of `CC[C@H](C)[C@@H]1NC(=O)[C@H](C)N(C)C(=O)C[C@@H](C)NC(=O)[C@H](C(C)C)N(C)C(=O)[C@H](Cc2ccccc2)N(C)C(=O)[C@H](CC(C)C)N(C)C(=O)[C@H](CCc2ccc(C(F)(F)F)c(F)c2)NC(=O)CN(C)C(=O)[C@H](Cc2ccc(Cl)cc2)N(C)C(=O)CN(C)C(=O)CN(C)C1=O` [Compound 1105] (cyclo(I[Sar][Sar][NMePhe(4-Cl)][Sar][hPhe(3-F,4-CF3)][NMeL][NMeF][NMeV][d(β3hA)][NMeA])), the IC50 [1] is reported as greater than 500 nM and the IC50 [2] is reported as 21 nM.

`CC[C@H](C)[C@@H]1NC(=O)[C@H](CC(C)C)N(C)C(=O)C[C@@H](C(=O)N2CCOCC2)N(C)C(=O)[C@H]([C@@H](C)CC)N(C)C(=O)C2(CCCC2)NC(=O)[C@@H]2CCCN2C(=O)[C@H](CCc2cc(F)c(C(F)(F)F)c(F)c2)NC(=O)CN(C)C(=O)[C@H](Cc2ccc(C(F)(F)F)cc2)N(CC)C(=O)[C@@H]2CCN2C(=O)[C@H](C)N(C)C1=O` [Compound 1364] ([NMeL]I[NMeA][Aze][NEtPhe(4-CF3)][Sar][hPhe(3,5-F2-4-CF3)]P[Ac5c][NMeI][NMeD]-Morpholide; lactam N-11) showed an IC50 [1] of no more than 20 nM and an IC50 [2] of 1.2 nM.

`CC[C@H](C)[C@@H]1NC(=O)[C@H](COCC(C)(C)O)N(C)C(=O)C[C@@H](C)NC(=O)[C@H](CC(C)C)N(C)C(=O)C(C)(C)NC(=O)[C@H](CC(C)C)N(C)C(=O)[C@H](CCc2ccc(C(F)(F)F)c(Cl)c2)NC(=O)CN(C)C(=O)[C@H](COCCC(C)C)N(C)C(=O)CN(C)C(=O)CN(CC)C1=O` [Compound 1476] (cyclo([Aib][NMeL][d(β3hA)][NMeS](CH2CMe2OH)I[NEtG][Sar][NMeS](Isopentyl)[Sar][hPhe(3-Cl-4-CF3)][NMeL])) showed an IC50 [1] greater than 500 nM and an IC50 [2] of 46 nM.

In the case of `CC[C@H](C)[C@@H]1NC(=O)[C@H](CC(C)C)N(C)C(=O)C[C@@H](C(=O)N2CCCCC2)N(C)C(=O)[C@H](C2CCCCC2)N(C)C(=O)C2(CCCC2)NC(=O)[C@H](Cc2cncc(OC)c2)N(C)C(=O)[C@H](CCc2ccc(C(F)(F)F)c(Cl)c2)NC(=O)CN(C)C(=O)[C@H](CC2CCCCC2)N(C)C(=O)CN(C)C(=O)CN(C)C1=O` [Compound 887] ([NMeL]I[Sar][Sar][NMeCha][Sar][hPhe(3-Cl-4-CF3)][X24][Ac5c][NMeChg][NMeD]-Piperidide; lactam N-11), the IC50 [1] is reported as greater than 500 nM and the IC50 [2] is reported as 6.2 nM.

`CC[C@H](C)[C@@H]1NC(=O)[C@H](CC(C)C)N(C)C(=O)C[C@@H](C(=O)N2CCCCC2)N(C)C(=O)[C@H](C2CCCC2)N(C)C(=O)C2(CCCC2)NC(=O)[C@@H]2CCCN2C(=O)[C@H](CCc2ccc(C(F)(F)F)c(Cl)c2)NC(=O)CN(C)C(=O)[C@H](CC2CCCCC2)N(C)C(=O)[C@@H]2CCN2C(=O)[C@H](C)N(C)C1=O` [Compound 1787] ([NMeL]I[NMeA][Aze][NMeCha][Sar][hPhe(3-Cl-4-CF3)]P[Ac5c][NMeGly(cPent)][NMeD]-Piperidide; lactam N-11) gave an IC50 [1] of no more than 20 nM and an IC50 [2] of 1.1 nM.

`CC[C@H](C)[C@@H]1NC(=O)[C@H](CC(C)C)N(C)C(=O)C[C@@H](C)NC(=O)[C@H](C2CCCC2)N(C)C(=O)[C@@H](C)NC(=O)[C@@H]2CCCN2C(=O)[C@H](CCc2ccc(C(F)(F)F)c(Cl)c2)NC(=O)CN(C)C(=O)[C@H](Cc2ccc(C)cc2)N(C)C(=O)[C@@H]2CCN2C(=O)[C@H](C)N(C)C1=O` [Compound 1222] (cyclo([Aze][NMePhe(4-Me)][Sar][hPhe(3-Cl-4-CF3)]P[dA][NMeGly(cPent)][d(β3hA)][NMeL]I[NMeA])) showed an IC50 [1] greater than 500 nM and an IC50 [2] of 25 nM.

With `CC[C@H](C)[C@@H]1NC(=O)[C@H](C)N(C)C(=O)C[C@@H](C(=O)N2CCCCC2)N(C)C(=O)[C@H](C(C)C)N(C)C(=O)C2(CCCC2)NC(=O)[C@H](Cc2ccccc2Cl)N(C)C(=O)[C@H](CCc2ccc(C(F)(F)F)c(Cl)c2)NC(=O)CN(C)C(=O)[C@H](CC2CCCCC2)N(C)C(=O)CN(C)C(=O)CN(C)C1=O` [Compound 963] ([NMeA]I[Sar][Sar][NMeCha][Sar][hPhe(3-Cl-4-CF3)][NMePhe(2-Cl)][Ac5c][NMeV][NMeD]-Piperidide; lactam N-11) the IC50 [1] was greater than 500 nM and the IC50 [2] was 13 nM.
